In series [1] the target is T1, Steroid 17-alpha-hydroxylase/17,20 lyase (Homo sapiens, UniProt P05093).
T1 sequence (P05093 whole entry): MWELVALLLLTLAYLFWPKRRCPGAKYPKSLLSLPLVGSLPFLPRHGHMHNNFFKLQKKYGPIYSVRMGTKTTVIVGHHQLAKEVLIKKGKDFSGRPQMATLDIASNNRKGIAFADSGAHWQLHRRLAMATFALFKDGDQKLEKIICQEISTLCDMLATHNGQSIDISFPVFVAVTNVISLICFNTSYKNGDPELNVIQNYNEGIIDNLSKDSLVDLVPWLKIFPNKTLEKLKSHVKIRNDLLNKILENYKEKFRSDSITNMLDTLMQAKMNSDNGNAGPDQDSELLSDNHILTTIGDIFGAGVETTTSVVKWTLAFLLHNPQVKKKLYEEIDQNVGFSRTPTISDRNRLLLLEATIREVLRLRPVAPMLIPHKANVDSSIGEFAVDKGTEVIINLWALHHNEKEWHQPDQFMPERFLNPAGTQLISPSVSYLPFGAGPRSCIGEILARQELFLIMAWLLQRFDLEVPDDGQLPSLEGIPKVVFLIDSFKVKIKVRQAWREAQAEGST
Put plainly: Inhibition of CYP17 in human testicular microsomes using 17alpha-hydroxypregnenolone as substrate assessed as decrease in DHEA levels after 90 mins by ELISA. Set-up: species or system Testis. In general terms: In an ELISA, binding on a coated surface is turned into a signal by an enzyme label.

Series [2] has as its target T1, Steroid 17-alpha-hydroxylase/17,20 lyase. The series can be described thus: Inhibition of CYP17 in human testicular microsomes using 17alpha-hydroxypregnenolone as substrate assessed as decrease in DHEA levels at 10 nM after 90 mins by ELISA relative to control. Details: species or system Testis. The following applies: 1.5 h.
Series [3] in a line: Half life in human liver microsomes at 1 uM by LC-MS/MS analysis. In general terms: Liver microsomes are a subcellular fraction often used to study metabolism.
Series [4] has as its target T2, CYP21 (steroid 21-hydroxylase) (Homo sapiens, UniProt P08686).
T2 sequence (P08686 whole entry): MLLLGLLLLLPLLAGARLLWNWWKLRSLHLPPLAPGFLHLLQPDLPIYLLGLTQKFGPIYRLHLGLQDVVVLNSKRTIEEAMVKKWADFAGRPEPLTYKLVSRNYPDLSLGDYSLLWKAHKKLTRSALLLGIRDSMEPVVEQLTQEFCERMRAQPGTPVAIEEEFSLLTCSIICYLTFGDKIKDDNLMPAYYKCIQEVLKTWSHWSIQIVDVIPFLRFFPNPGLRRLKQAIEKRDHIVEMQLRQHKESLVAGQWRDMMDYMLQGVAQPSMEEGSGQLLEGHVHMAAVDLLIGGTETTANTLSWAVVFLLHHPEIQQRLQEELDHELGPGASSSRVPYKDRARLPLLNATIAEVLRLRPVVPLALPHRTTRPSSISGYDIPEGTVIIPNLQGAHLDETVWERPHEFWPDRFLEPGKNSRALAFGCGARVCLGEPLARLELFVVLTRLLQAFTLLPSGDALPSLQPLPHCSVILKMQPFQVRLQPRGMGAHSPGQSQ
Put plainly: Inhibition of human CYP21 transfected in HEK293 cells assessed as decrease in conversion of progesterone to 11-deoxycorticosterone at 100 nM preincubated for 5 hrs followed by progesterone addition measured after 20 hrs by ELISA relative to control. The format is cell-based. The following applies: HEK293 cells transfected with human CYP21, probe progesterone.

The target in series [5] is T2, CYP21 (steroid 21-hydroxylase). Put plainly: Inhibition of human CYP21 transfected in HEK293 cells assessed as decrease in conversion of progesterone to 11-deoxycorticosterone preincubated for 5 hrs followed by progesterone addition measured after 20 hrs by ELISA. The class given is cell-based. Set-up: concentration or dose not given beside the values. The following applies: HEK293 cells transfected with human CYP21, probe progesterone.

The target in series [6] is T1, Steroid 17-alpha-hydroxylase/17,20 lyase. Put plainly: Inhibition of CYP17 in human H295R cells assessed as decrease in testosterone levels after 24 hrs by ELISA. The format is cell-based.
The next series addresses T3, CYP11B (Rattus norvegicus, UniProt P15393+P30099).
T3 sequence (P30099 whole entry): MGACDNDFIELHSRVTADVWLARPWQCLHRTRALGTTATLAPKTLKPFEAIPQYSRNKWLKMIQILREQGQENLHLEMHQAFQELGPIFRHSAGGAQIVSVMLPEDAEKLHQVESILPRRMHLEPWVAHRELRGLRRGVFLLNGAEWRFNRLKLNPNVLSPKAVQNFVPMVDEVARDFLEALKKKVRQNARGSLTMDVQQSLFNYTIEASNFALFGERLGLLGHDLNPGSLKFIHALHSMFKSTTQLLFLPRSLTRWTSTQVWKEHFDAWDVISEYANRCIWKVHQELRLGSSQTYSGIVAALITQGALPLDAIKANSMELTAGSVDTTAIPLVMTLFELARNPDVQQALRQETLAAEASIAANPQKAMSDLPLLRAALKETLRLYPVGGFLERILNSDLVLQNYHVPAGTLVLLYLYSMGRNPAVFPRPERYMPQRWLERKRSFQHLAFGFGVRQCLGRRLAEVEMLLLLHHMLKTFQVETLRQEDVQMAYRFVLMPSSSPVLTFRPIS
T3 sequence (P15393 whole entry): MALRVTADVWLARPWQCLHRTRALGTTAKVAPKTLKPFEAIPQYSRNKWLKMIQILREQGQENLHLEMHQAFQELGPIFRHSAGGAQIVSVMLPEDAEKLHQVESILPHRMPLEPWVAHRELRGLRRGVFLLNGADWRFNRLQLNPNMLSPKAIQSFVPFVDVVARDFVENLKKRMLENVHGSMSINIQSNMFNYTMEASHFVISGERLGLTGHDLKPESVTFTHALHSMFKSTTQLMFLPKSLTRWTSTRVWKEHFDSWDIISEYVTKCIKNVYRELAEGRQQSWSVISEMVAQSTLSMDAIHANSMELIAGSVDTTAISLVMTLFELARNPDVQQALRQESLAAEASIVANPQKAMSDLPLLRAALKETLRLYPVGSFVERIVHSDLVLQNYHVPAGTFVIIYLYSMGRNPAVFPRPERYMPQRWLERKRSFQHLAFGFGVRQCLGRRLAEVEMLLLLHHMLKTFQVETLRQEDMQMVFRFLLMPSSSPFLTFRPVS
Put plainly: Inhibition of Sprague-Dawley rat adrenal mitochondrial CYP11B assessed as decrease in conversion of 11-deoxycortisol to cortisol at 100 nM incubated for 60 mins by ELISA relative to control. The following applies: adrenal mitochondria, probe 11-deoxycortisol. The format is protein assay.

Series [7] deals with T1, Steroid 17-alpha-hydroxylase/17,20 lyase. The series can be described thus: Inhibition of CYP17 in human testicular microsomes using 17alpha-hydroxypregnenolone as substrate assessed as decrease in DHEA levels at 1 nM after 90 mins by ELISA relative to control. Details: species or system Testis.

Where only a bound is given, the exact number is not on record here.

As for `C[C@]12CCCC(=O)CC1=CC[C@@H]1[C@@H]2CC[C@]2(C)C(n3ccnc3)=CC[C@@H]12`, in series [1], the IC50 (commonly the concentration at which inhibition is half-maximal) was not above 11 nM. Also, the inhibition (in general, the percentage by which the read-out fell short of the control) at 0.01 µM in series [2] was not below 80%. Moreover, in series [3], the half-life (as a rule, how long it takes for the measured level to halve) at 1 µM lay in the range of 1 to 50 min. Further, the inhibition at 20 h, 0.1 µM in series [4] was not below 30%.
For the molecule `CN1CC[C@@]2(C)C(=CC1=O)CC[C@H]1C3=CC=C(c4cnccn4)[C@@]3(C)CC[C@@H]12`, the IC50 in series [1] was not above 11 nM. For the same molecule, in series [2], the inhibition at 0.01 µM was not below 80%. The inhibition at 20 h, 0.1 µM in series [4] is not below 30%. In addition, the inhibition at 20 h in series [5] is 10 to 50%.
For `COc1cncc(C2=CC=C3[C@@H]4CCC5=CC(=O)CC[C@]5(C)[C@H]4CC[C@]23C)c1`, the inhibition at 0.01 µM in series [2] was 50 to 80%. Moreover, the half-life at 1 µM in series [3] is 1 to 50 min. In series [4], the inhibition at 20 h, 0.1 µM is not below 30%.
Regarding `COc1cncc(C2=CC=C3[C@@H]4CCC5=CC(=O)NCC[C@]5(C)[C@H]4CC[C@]23C)c1`, the IC50 in series [1] was not above 11 nM. Also, in series [2], the inhibition at 0.01 µM was in the range of 50 to 80%. The inhibition at 20 h, 0.1 µM in series [4] was not below 30%.
Consider `CCCOc1cncc(C2=CC[C@H]3[C@@H]4CCC5=CC(=O)NCC[C@]5(C)[C@H]4CC[C@]23C)c1`, for which, in series [1], the half-maximal inhibitory concentration (IC50) was not above 11 nM. Also, in series [2], the inhibition at 0.01 µM lay within 50 to 80%. Also, the inhibition at 20 h, 0.1 µM in series [4] is less than 30%.
Regarding `C[C@]12CCCC(=O)CC1=CC[C@@H]1[C@@H]2CC[C@]2(C)C(c3cnccn3)=CC[C@@H]12`, the inhibition at 0.01 µM in series [2] was not below 80%. The molecule further returned a half-life at 1 µM in series [3] of 1 to 50 min. In addition, the inhibition at 20 h, 0.1 µM in series [4] was not below 30%.
As for `CC(=O)N[C@@H]1CC[C@@]2(C)C(=CC[C@@H]3[C@@H]2CC[C@]2(C)C(n4ccnc4)=CC[C@@H]32)C1`, the IC50 in series [1] was not above 11 nM; in series [6], not above 15 nM. For the same molecule, the half-life at 1 µM in series [3] was not below 50 min. For the same molecule, the inhibition at 1 h, 0.1 µM on CYP11B is not below 50%. Also, the inhibition at 20 h in series [5] is not below 50%.
As for `COC(=O)N1CCC[C@@]2(C)[C@@H](CC[C@@H]3[C@@H]2CC[C@]2(C)C(n4ccnc4)=CC[C@@H]32)C1`, on CYP11B, the inhibition at 1 h, 0.1 µM was not below 50%. In addition, in series [7], the IC50 is more than 100 nM. Moreover, the inhibition at 20 h in series [5] was 10 to 50%.
`CCc1cncc(C2=CC[C@H]3[C@@H]4CCC5=CC(=O)N(C)CC[C@]5(C)[C@H]4CC[C@]23C)c1`: the inhibition at 0.01 µM in series [2] lay in the range of 50 to 80%. Further, in series [4], the inhibition at 20 h, 0.1 µM was not below 30%.
With `Cc1cncc(C2=CC=C3[C@@H]4CCC5=CC(=O)N(C)CC[C@]5(C)[C@H]4CC[C@]23C)c1`, the inhibition at 0.01 µM in series [2] is 50 to 80%. Besides, the inhibition at 20 h, 0.1 µM in series [4] is less than 30%.
Take `C[C@]12CC[C@H]3[C@@H](CCN4C(=O)CCCC[C@]34C)[C@@H]1CC=C2c1cccnc1`: in series [1], the IC50 is not above 11 nM. Also, the inhibition at 0.01 µM in series [2] fell in the range of 50 to 80%. Further, in series [4], the inhibition at 20 h, 0.1 µM is less than 30%.
In the case of `C[C@]12CC[C@H]3[C@@H](CCC4=C/C(=N/O)CC[C@@]43C)C1=CC=C2c1cccnc1`, the IC50 in series [1] is not above 11 nM. In addition, the half-life at 1 µM in series [3] was in the range of 1 to 50 min. Also, the inhibition at 20 h, 0.1 µM in series [4] is less than 30%. Also, the inhibition at 20 h in series [5] was not below 50%.
Consider `CC1C[C@H]2C3=CC=C(c4cncc(N)c4)[C@@]3(C)CC[C@@H]2[C@@]2(C)CCC(=O)C=C12` (stereo not given in full), for which the IC50 in series [1] is not above 11 nM. For the same molecule, in series [4], the inhibition at 20 h, 0.1 µM was less than 30%.
Regarding `Cc1ccncc1C1=CCC2[C@@H]3CN(C)C4=CC(=O)CC[C@]4(C)[C@H]3CC[C@]12C` (single isomer, unassigned), the IC50 in series [6] was not above 15 nM. In addition, at CYP11B, the inhibition at 1 h, 0.1 µM is not below 50%. Also, in series [5], the inhibition at 20 h was 10 to 50%.
`C[C@]12CC[C@H](O)CC1=CC[C@@H]1[C@@H]2CC[C@]2(C)C(c3cccnc3)=CC[C@@H]12` [ABIRATERONE]: the concentration for half-maximal inhibition (IC50) was not above 11 nM in series [1] and not above 15 nM in series [6]. In addition, the inhibition at 0.01 µM in series [2] is not below 80%. Besides, the half-life at 1 µM in series [3] was in the range of 1 to 50 min. Also, the inhibition at 1 h, 0.1 µM at CYP11B was less than 32%. Further, the inhibition at 20 h in series [5] was not below 50%.

The values are drawn from ChEMBL document CHEMBL3882724 (2013).
